# Measurements as given in the supplement of paper PMC10307832.
# Experiments:
# Experiment in all cases: relative viability (nuclei count vs DMSO), 5 days (fraction); higher = more cells survive
# SK-LU-1 = tested on: SK-LU-1
# Outline: (§1)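 The day after seeding in 1536-well plates, lung cancer cell lines were treated by pin tool with a single drug, or with a fixed anchor-drug dose together with five library-drug doses (not always all listed) in √10 steps. After 5 days, a combined fix-and-stain solution (final 0.05% Triton X-100, 1% formaldehyde, 1 ug/ml Hoechst) was added. Nuclei counted on 4× images gave relative viability as treated counts over vehicle counts, reported as the median of duplicate plates.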
# NCI-H2126 = tested on: NCI-H2126
# Outline: as §1
# NCI-H1915 = tested on: NCI-H1915
# Outline: as §1
# SW 1573 = tested on: SW 1573
# Outline: as §1
# NCI-H647 = tested on: NCI-H647
# Outline: as §1
# NCI-H2347 = tested on: NCI-H2347
# Outline: as §1
# NCI-H322M = tested on: NCI-H322M
# Outline: as §1
# NCI-H2023 = tested on: NCI-H2023
# Outline: as §1
# LCLC-97TM1 = tested on: LCLC-97TM1
# Outline: as §1
# H3255 = tested on: H3255
# Outline: as §1
# NCI-H2009 = tested on: NCI-H2009
# Outline: as §1
# EPLC-272H = tested on: EPLC-272H
# Outline: as §1
# NCI-H1993 = tested on: NCI-H1993
# Outline: as §1
# PC-14 = tested on: PC-14
# Outline: as §1
# NCI-H661 = tested on: NCI-H661
# Outline: as §1
# HOP-62 = tested on: HOP-62
# Outline: as §1
# LXF-289 = tested on: LXF-289
# Outline: as §1
# NCI-H727 = tested on: NCI-H727
# Outline: as §1
# NCI-H1734 = tested on: NCI-H1734
# Outline: as §1
# EMC-BAC-2 = tested on: EMC-BAC-2
# Outline: as §1
# NCI-H2085 = tested on: NCI-H2085
# Outline: as §1
smiles,measurement,setting,value
COc1cc2nccc(Oc3ccc(NC(=O)Nc4cc(C)on4)c(Cl)c3)c2cc1OC [Tivozanib] + CC(=O)c1c(C)c2cnc(Nc3ccc(N4CCNCC4)cn3)nc2n(C2CCCC2)c1=O [Palbociclib] (partner 0.5 µM),relative viability,SK-LU-1; first compound 0.005 µM,0.372
same,relative viability,SK-LU-1; first compound 0.01581 µM,0.396
same,relative viability,SK-LU-1; first compound 0.05 µM,0.386
same,relative viability,SK-LU-1; first compound 0.1581 µM,0.367
same,relative viability,SK-LU-1; first compound 0.5 µM,0.37
same,relative viability,NCI-H2126; first compound 0.005 µM,0.384
same,relative viability,NCI-H2126; first compound 0.01581 µM,0.345
same,relative viability,NCI-H2126; first compound 0.05 µM,0.352
same,relative viability,NCI-H2126; first compound 0.1581 µM,0.337
same,relative viability,NCI-H2126; first compound 0.5 µM,0.371
same,relative viability,NCI-H1915; first compound 0.005 µM,0.537
same,relative viability,NCI-H1915; first compound 0.01581 µM,0.553
same,relative viability,NCI-H1915; first compound 0.05 µM,0.538
same,relative viability,NCI-H1915; first compound 0.1581 µM,0.484
same,relative viability,NCI-H1915; first compound 0.5 µM,0.503
same,relative viability,SW 1573; first compound 0.005 µM,0.344
same,relative viability,SW 1573; first compound 0.01581 µM,0.412
same,relative viability,SW 1573; first compound 0.05 µM,0.418
same,relative viability,SW 1573; first compound 0.1581 µM,0.391
same,relative viability,SW 1573; first compound 0.5 µM,0.344
same,relative viability,NCI-H647; first compound 0.005 µM,0.396
same,relative viability,NCI-H647; first compound 0.01581 µM,0.391
same,relative viability,NCI-H647; first compound 0.05 µM,0.3
same,relative viability,NCI-H647; first compound 0.1581 µM,0.32
same,relative viability,NCI-H647; first compound 0.5 µM,0.35
same,relative viability,NCI-H2347; first compound 0.005 µM,0.48
same,relative viability,NCI-H2347; first compound 0.01581 µM,0.424
same,relative viability,NCI-H2347; first compound 0.05 µM,0.462
same,relative viability,NCI-H2347; first compound 0.1581 µM,0.478
same,relative viability,NCI-H2347; first compound 0.5 µM,0.422
same,relative viability,NCI-H322M; first compound 0.005 µM,0.467
same,relative viability,NCI-H322M; first compound 0.01581 µM,0.478
same,relative viability,NCI-H322M; first compound 0.05 µM,0.522
same,relative viability,NCI-H322M; first compound 0.1581 µM,0.538
same,relative viability,NCI-H322M; first compound 0.5 µM,0.513
same,relative viability,NCI-H2023; first compound 0.005 µM,0.371
same,relative viability,NCI-H2023; first compound 0.01581 µM,0.447
same,relative viability,NCI-H2023; first compound 0.05 µM,0.384
same,relative viability,NCI-H2023; first compound 0.1581 µM,0.395
same,relative viability,NCI-H2023; first compound 0.5 µM,0.451
same,relative viability,LCLC-97TM1; first compound 0.005 µM,0.233
same,relative viability,LCLC-97TM1; first compound 0.01581 µM,0.245
same,relative viability,LCLC-97TM1; first compound 0.05 µM,0.193
same,relative viability,LCLC-97TM1; first compound 0.1581 µM,0.268
same,relative viability,LCLC-97TM1; first compound 0.5 µM,0.214
same,relative viability,H3255; first compound 0.005 µM,0.313
same,relative viability,H3255; first compound 0.01581 µM,0.356
same,relative viability,H3255; first compound 0.05 µM,0.294
same,relative viability,H3255; first compound 0.1581 µM,0.334
same,relative viability,H3255; first compound 0.5 µM,0.328
same,relative viability,NCI-H2009; first compound 0.005 µM,0.212
same,relative viability,NCI-H2009; first compound 0.01581 µM,0.209
same,relative viability,NCI-H2009; first compound 0.05 µM,0.23
same,relative viability,NCI-H2009; first compound 0.1581 µM,0.109
same,relative viability,NCI-H2009; first compound 0.5 µM,0.119
same,relative viability,EPLC-272H; first compound 0.005 µM,0.268
same,relative viability,EPLC-272H; first compound 0.01581 µM,0.303
same,relative viability,EPLC-272H; first compound 0.05 µM,0.35
same,relative viability,EPLC-272H; first compound 0.1581 µM,0.348
same,relative viability,EPLC-272H; first compound 0.5 µM,0.282
same,relative viability,NCI-H1993; first compound 0.005 µM,0.551
same,relative viability,NCI-H1993; first compound 0.01581 µM,0.641
same,relative viability,NCI-H1993; first compound 0.05 µM,0.638
same,relative viability,NCI-H1993; first compound 0.1581 µM,0.537
same,relative viability,NCI-H1993; first compound 0.5 µM,0.617
same,relative viability,PC-14; first compound 0.005 µM,0.528
same,relative viability,PC-14; first compound 0.01581 µM,0.538
same,relative viability,PC-14; first compound 0.05 µM,0.549
same,relative viability,PC-14; first compound 0.1581 µM,0.54
same,relative viability,PC-14; first compound 0.5 µM,0.394
same,relative viability,NCI-H661; first compound 0.005 µM,0.401
same,relative viability,NCI-H661; first compound 0.01581 µM,0.387
same,relative viability,NCI-H661; first compound 0.05 µM,0.422
same,relative viability,NCI-H661; first compound 0.1581 µM,0.409
same,relative viability,NCI-H661; first compound 0.5 µM,0.387
same,relative viability,HOP-62; first compound 0.005 µM,0.499
same,relative viability,HOP-62; first compound 0.01581 µM,0.419
same,relative viability,HOP-62; first compound 0.05 µM,0.495
same,relative viability,HOP-62; first compound 0.1581 µM,0.438
same,relative viability,HOP-62; first compound 0.5 µM,0.397
same,relative viability,LXF-289; first compound 0.005 µM,0.575
same,relative viability,LXF-289; first compound 0.01581 µM,0.576
same,relative viability,LXF-289; first compound 0.05 µM,0.6
same,relative viability,LXF-289; first compound 0.1581 µM,0.66
same,relative viability,LXF-289; first compound 0.5 µM,0.612
same,relative viability,NCI-H727; first compound 0.005 µM,0.659
same,relative viability,NCI-H727; first compound 0.01581 µM,0.659
same,relative viability,NCI-H727; first compound 0.05 µM,0.574
same,relative viability,NCI-H727; first compound 0.1581 µM,0.637
same,relative viability,NCI-H727; first compound 0.5 µM,0.7
same,relative viability,NCI-H1734; first compound 0.005 µM,0.313
same,relative viability,NCI-H1734; first compound 0.01581 µM,0.34
same,relative viability,NCI-H1734; first compound 0.05 µM,0.335
same,relative viability,NCI-H1734; first compound 0.1581 µM,0.336
same,relative viability,NCI-H1734; first compound 0.5 µM,0.345
same,relative viability,EMC-BAC-2; first compound 0.005 µM,0.524
same,relative viability,EMC-BAC-2; first compound 0.01581 µM,0.543
same,relative viability,EMC-BAC-2; first compound 0.05 µM,0.529
same,relative viability,EMC-BAC-2; first compound 0.1581 µM,0.521
same,relative viability,EMC-BAC-2; first compound 0.5 µM,0.494
same,relative viability,NCI-H2085; first compound 0.005 µM,0.458
same,relative viability,NCI-H2085; first compound 0.01581 µM,0.478
same,relative viability,NCI-H2085; first compound 0.05 µM,0.512
same,relative viability,NCI-H2085; first compound 0.1581 µM,0.512
same,relative viability,NCI-H2085; first compound 0.5 µM,0.503
